The values that follow come from US12180192B2, “Modulators of THR-β and methods of use thereof” (ALIGOS THERAPEUTICS, INC., priority 2019, dated 2024).

By pEC50 is commonly meant the negative decadic logarithm of the EC50, by convention in mol/L. A word on the Emax: it is the size of the effect at its maximum, as opposed to the concentration needed.

One test deals with T1, THR beta (Homo sapiens, UniProt P10828).
T1 construct: expressed in transfected cells; host or cells: HEK293T (ATCC CRL-3216)
T1 sequence (P10828 1-461): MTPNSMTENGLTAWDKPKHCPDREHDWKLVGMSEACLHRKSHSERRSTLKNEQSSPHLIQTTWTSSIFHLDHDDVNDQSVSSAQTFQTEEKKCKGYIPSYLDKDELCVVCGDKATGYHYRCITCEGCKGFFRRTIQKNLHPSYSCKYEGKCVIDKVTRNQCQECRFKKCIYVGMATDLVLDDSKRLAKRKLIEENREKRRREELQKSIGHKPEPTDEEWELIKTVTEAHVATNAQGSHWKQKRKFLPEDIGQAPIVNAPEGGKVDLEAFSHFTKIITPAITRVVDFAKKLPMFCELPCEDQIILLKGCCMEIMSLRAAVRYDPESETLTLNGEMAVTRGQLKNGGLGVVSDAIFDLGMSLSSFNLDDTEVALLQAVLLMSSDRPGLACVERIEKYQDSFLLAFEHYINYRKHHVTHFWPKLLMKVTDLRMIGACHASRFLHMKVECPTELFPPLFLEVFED
T1 sequence (P19793 1-462 partner): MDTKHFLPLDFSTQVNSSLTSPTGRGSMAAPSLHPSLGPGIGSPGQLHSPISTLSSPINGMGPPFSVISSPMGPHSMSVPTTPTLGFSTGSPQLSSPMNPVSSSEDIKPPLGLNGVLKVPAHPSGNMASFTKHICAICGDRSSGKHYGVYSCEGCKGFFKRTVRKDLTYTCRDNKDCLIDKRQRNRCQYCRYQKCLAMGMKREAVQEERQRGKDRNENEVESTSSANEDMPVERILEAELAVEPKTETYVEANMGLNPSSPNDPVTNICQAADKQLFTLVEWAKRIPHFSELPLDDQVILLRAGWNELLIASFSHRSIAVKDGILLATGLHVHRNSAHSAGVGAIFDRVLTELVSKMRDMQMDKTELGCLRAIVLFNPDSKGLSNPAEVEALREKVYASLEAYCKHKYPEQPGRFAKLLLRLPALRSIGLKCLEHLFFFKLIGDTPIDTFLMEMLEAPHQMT
The experiment in a line: HEK293T THR beta/RXR luciferase reporter assay (Assay 2). The conditions noted are these: HEK293T reporter THRbeta/RXR; read-out: EC50 β. The class given is cell-based. On the procedure: (§1) HEK293T Reporter THRalpha/Beta/RXR Reporter Assay (Assay 2)
(§2) The purpose of this assay is to evaluate the effect of compounds on the thyroid hormone nuclear receptor pathway in HEK293T cells. To this end, HEK293T cells are transiently transfected with a luciferase reporter under the control of the thyroid response element (TRE), an RXR expression plasmid and either a THR alpha or THR beta expression plasmid. Transfected cells are stimulated with test compounds for 18-24 hours before activation of the thyroid hormone pathway is measured via a luciferase read-out.
(§3) Procedure. […] Ten five-fold dilutions of test compounds are prepared in DMSO and 30 nL are dispensed to the cells. […] Approximately 18-24 h after compound addition, 384 well plates are allowed to adjust to rt, 30 μL One-Glo (Promega catalog #E6120) is added to each well and luminescence is measured on a Perkin Elmer Enspire plate reader. Percent agonism is calculated using the following equation: 100× (sample-negative control)/(positive control-negative control).

A further test deals with T2, THR alpha (Homo sapiens, UniProt P10827).
T2 construct: expressed in transfected cells; host or cells: HEK293T (ATCC CRL-3216)
T2 sequence (P10827 1-410 isoform P10827-2): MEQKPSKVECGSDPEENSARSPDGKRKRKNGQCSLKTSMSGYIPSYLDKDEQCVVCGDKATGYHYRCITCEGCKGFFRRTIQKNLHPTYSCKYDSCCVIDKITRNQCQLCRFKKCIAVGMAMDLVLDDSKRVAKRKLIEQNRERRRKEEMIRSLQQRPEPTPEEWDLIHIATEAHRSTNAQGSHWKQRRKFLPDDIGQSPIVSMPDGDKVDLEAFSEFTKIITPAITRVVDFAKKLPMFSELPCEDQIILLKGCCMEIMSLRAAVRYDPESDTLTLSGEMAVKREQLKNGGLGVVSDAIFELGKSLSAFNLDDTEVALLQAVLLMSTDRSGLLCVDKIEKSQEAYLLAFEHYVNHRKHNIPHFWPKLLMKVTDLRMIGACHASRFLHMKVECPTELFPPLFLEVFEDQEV
T2 sequence (P19793 1-462 partner): T1 sequence (P19793 1-462 partner)
Briefly: HEK293T THR alpha/RXR luciferase reporter assay (Assay 2). The class given is cell-based. The conditions noted are these: HEK293T reporter THRalpha/RXR; read-out: EC50 α. Here is the method:
as §1, §2, §3

The target in test [1] is T3, human thyroid receptor alpha ligand-binding domain (LBD) (Homo sapiens, UniProt P10827).
T3 construct: purchased Invitrogen
Briefly: TR-FRET thyroid receptor alpha coactivator assay (THR biochemical assay, Assay 1). The conditions noted are these: for pEC50: Table 4, THR-alpha, read-out: Activity category Assay 1 (EC50, THR-alpha agonist activity); for Emax: Table 5, THRα, read-out: Activity category Assay 1 THRα (Emax). An excerpt:
(§4) The TR-FRET thyroid receptor beta coactivator assay was used with slight, optimized modifications of the manufacturer's protocol (Invitrogen). The assay uses a terbium-labeled anti-GST antibody, a glutathione-S-transferase (GST) tagged human thyroid receptor, beta or alpha, ligand-binding domain (LBD), and a fluorescein labeled SRC2-2 coactivator peptide. […] The energy transfer is detected as an increase in the fluorescence emission of the fluorescein acceptor, and a decrease in the fluorescence emission of the terbium donor. The assay is performed in a 384-well black plate in a final volume of 20 μL. Serial dilution of various test agonists was performed in DMSO (1% final DMSO concentration) and added to the test plate. Thyroid receptor beta LBD is added to the plate at a final concentration of 1 nM, followed by the mixture of the fluorescein labeled SRC2-2 coactivator peptide, and the terbium-labeled anti-GST antibody at final concentrations of 200 nM and 2 nM respectively. The assay is incubated for 1 hr at rt protected from light.
Background: TR-FRET usually uses a lanthanide donor and a delayed reading to cut background.

In test [2] the target is T4, human thyroid receptor beta ligand-binding domain (LBD) (Homo sapiens, UniProt P10828).
T4 construct: purchased Invitrogen
T4 sequence (P10828 217-461 limits assumed): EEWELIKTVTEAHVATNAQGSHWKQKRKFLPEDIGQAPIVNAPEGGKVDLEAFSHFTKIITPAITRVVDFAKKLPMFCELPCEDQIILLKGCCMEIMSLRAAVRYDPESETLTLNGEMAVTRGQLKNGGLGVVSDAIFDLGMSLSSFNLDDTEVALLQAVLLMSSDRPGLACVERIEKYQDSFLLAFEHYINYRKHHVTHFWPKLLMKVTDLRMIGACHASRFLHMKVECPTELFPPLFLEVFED
Briefly: TR-FRET thyroid receptor beta coactivator assay (THR biochemical assay, Assay 1). The settings on record: for pEC50: THR-beta, TR-FRET coactivator assay, read-out: Activity category Assay 1 (EC50, THR-beta agonist); for Emax: Table 5, Assay 1, THRβ, read-out: Activity category Assay 1 THRβ (Emax).
Excerpt: as §4

pEC50: −log10 of the molar value.

With `N#Cc1nn(-c2cc(Cl)c(Oc3cc(C4CCCC4)c(=O)[nH]n3)c(Cl)c2)c(=O)[nH]c1=O` [CN analog 1, reference compound], the pEC50 at THR beta and at THR alpha was less than 5.00 in each case.

Regarding `Cc1cc(-c2cc(Oc3c(Cl)cc(-n4ncc(=O)[nH]c4=O)cc3Cl)n[nH]c2=O)ccn1` [Compound 141], in test [1], the pEC50 is less than 4.60 and the Emax is less than 50%. For the same compound, in test [2], the pEC50 was 4.60 to 6.00 and the Emax is less than 50%.

On to `CCn1nc(-c2cc(Cl)c(Oc3cc(C(C)C)c(=O)[nH]n3)c(Cl)c2)c(=O)[nH]c1=O` [Compound 23], for which the pEC50 in test [1] and in test [2] was 4.60 to 6.00 each time. The Emax in test [1] and in test [2] was less than 50% throughout.

In the case of `CSCc1nn(-c2cc(Cl)c(Oc3cc(C(C)C)c(=O)[nH]n3)c(Cl)c2)c(=O)[nH]c1=O` [Compound 33, 2-[3,5-dichloro-4-[(5-isopropyl-6-oxo-1H-pyridazin-3-yl)oxy]phenyl]-6-[(methylsulfanyl)-methyl]-4H-1,2,4-triazine-3,5-dione], the pEC50 in test [1] and in test [2] was 6.00 to 6.60 throughout. Further, the Emax in test [1] is less than 50%; in test [2], more than 75%.

Turning to `Nc1nn(-c2cc(Cl)c(Oc3cc(C4Cc5ccccc54)c(=O)[nH]n3)c(Cl)c2)c(=O)[nH]c1=O` (single isomer, unassigned) [Compound 165, 6-amino-2-(4-((5-(bicyclo[4.2.0]octa-1(6),2,4-trien-7-yl)-6-oxo-1,6-dihydropyridazin-3-yl)oxy)-3,5-dichlorophenyl)-1,2,4-triazine-3,5(2H,4H)-dione], the values for the pEC50 in test [1] and in test [2] were 6.00 to 6.60 and more than 7.30, respectively. Further, the Emax in test [1] and in test [2] was less than 50% throughout.

Regarding `CC(c1ccccc1)c1c[nH]c2ccc(Oc3c(Cl)cc(-n4nc(C#N)c(=O)[nH]c4=O)cc3Cl)cc12` (centres unmarked) [Compound 6, 2-(3,5-dichloro-4-[[3-(1-phenylethyl)-1H-indol-5-yl]oxy]phenyl)-3,5-dioxo-4H-1,2,4-triazine-6-carbonitrile], the pEC50 in test [1] and in test [2] was less than 4.60 throughout. For the same compound, the Emax in test [1] and in test [2] was less than 50% throughout.

For the compound `Cc1cncc(-c2cc(Oc3c(Cl)cc(-n4ncc(=O)[nH]c4=O)cc3Cl)n[nH]c2=O)c1` [Compound 137], in test [1], the pEC50 was less than 4.60 and the Emax is less than 50%. For the same compound, in test [2], the pEC50 was 4.60 to 6.00 and the Emax is less than 50%.

`Nc1nn(-c2cc(Cl)c(Oc3cc(-c4ccc5nnccc5c4)c(=O)[nH]n3)c(Cl)c2)c(=O)[nH]c1=O` [Compound 108]: in test [1], the pEC50 was less than 4.60 and the Emax was less than 50%. For the same compound, in test [2], the pEC50 is less than 4.60 and the maximum response (Emax) was less than 50%.

In the case of `C[C@H](c1cc(Oc2c(Cl)cc(-n3nc(N)c(=O)[nH]c3=O)cc2Cl)n[nH]c1=O)C1CCC1` [Compound 168], in test [1], the pEC50 was 6.60 to 7.30 and the Emax lay in the range of 50 to 75%. In test [2], the pEC50 is more than 7.30 and the Emax is less than 50%.

Regarding `CC(C)c1cc(Oc2c(Cl)cc(-n3nc(CS(C)(=O)=O)c(=O)[nH]c3=O)cc2Cl)n[nH]c1=O` [Compound 34, 2-[3,5-dichloro-4-[(5-isopropyl-6-oxo-1H-pyridazin-3-yl)oxy]-phenyl]-6-(methanesulfonylmethyl)-4H-1,2,4-triazine-3,5-dione], the pEC50 in test [1] was less than 4.60; in test [2], 4.60 to 6.00. The maximum response (Emax) in test [1] and in test [2] was less than 50% each time.

For `Nc1nn(-c2cc(Cl)c(Oc3n[nH]c(=O)cc3-c3ccc4ccnn4c3)c(Cl)c2)c(=O)[nH]c1=O` [Compound 123], in test [1], the pEC50 is less than 4.60 and the Emax was less than 50%. In test [2], the pEC50 was less than 4.60 and the Emax is less than 50%.

Take `CCc1cccc(-c2cc(=O)[nH]nc2Oc2c(Cl)cc(-n3nc(N)c(=O)[nH]c3=O)cc2Cl)c1` [Compound 71-A, 6-Amino-2-(3,5-dichloro-4-((4-(3-ethylphenyl)-6-oxo-1,6-dihydropyridazin-3-yl)oxy)phenyl)-1,2,4-triazine-3,5(2H,4H)-dione]: in test [1], the pEC50 was less than 4.60 and the Emax was less than 50%. In test [2], the pEC50 is less than 4.60 and the maximal response (Emax) is less than 50%.

Take `Nc1nn(-c2cc(Cl)c(Oc3n[nH]c(=O)cc3-c3ccn4nccc4c3)c(Cl)c2)c(=O)[nH]c1=O` [Compound 125]: in test [1], the pEC50 was less than 4.60 and the maximal response (Emax) was less than 50%. In test [2], the pEC50 is 4.60 to 6.00 and the Emax is less than 50%.

Consider `Cc1cc(-n2nc(C#N)c(=O)[nH]c2=O)cc(C)c1Cc1ccc2c(c1)C1(CCC1)C(=O)N2` [Compound 153, 2-(3,5-Dimethyl-4-((2′-oxospiro[cyclobutane-1,3′-indolin]-5′-yl)methyl)phenyl)-3,5-dioxo-2,3,4,5-tetrahydro-1,2,4-triazine-6-carbonitrile], for which, in test [1], the pEC50 was more than 7.30 and the maximal response (Emax) was less than 50%. In test [2], the pEC50 is more than 7.30 and the Emax was less than 50%.

`N#C[C@@H]1CC[C@H]1c1cc(Oc2c(Cl)cc(-n3nc(N)c(=O)[nH]c3=O)cc2Cl)n[nH]c1=O` (relative stereo) [Compound 105]: in test [1], the pEC50 is 4.60 to 6.00 and the Emax is less than 50%. Moreover, in test [2], the negative logarithm of the EC50 (pEC50) was 4.60 to 6.00 and the maximal effect (Emax) is less than 50%.

As to `Nc1nn(-c2cc(Cl)c(Oc3cc(-c4ccc5ccnn5c4)c(=O)[nH]n3)c(Cl)c2)c(=O)[nH]c1=O` [Compound 122], the negative logarithm of the EC50 (pEC50) in test [1] and in test [2] was 4.60 to 6.00 throughout. For the same compound, the maximal response (Emax) in test [1] and in test [2] was less than 50% in each case.
